Experimental data reported in patent publication US11040033B2 (Gilead Sciences, Inc., priority 2017, dated 2021).

The compounds below were run against T1, IDO1 (Homo sapiens, UniProt P14902) (assay: Cell-based (HeLa) assay for measurement of IDO1 inhibition (kynurenine levels in supernatant after IFNγ induction)). Details: H1-HeLa cells, IFNγ-induced IDO1, 48 hour incubation, kynurenine absorbance at 480 nm; geometric mean of a minimum of four determinations.
T1 construct: HeLa cells were treated with a test compound in the presence of IFNγ, which induces IDO1 expression; endogenous in cells; host or cells: H1-HeLa cells (ATCC #CRL-1958), induced with IFNγ
Protocol: To measure IDO1 inhibition in tissue culture, HeLa cells were treated with a test compound in the presence of IFNγ, which induces IDO1 expression. Following incubation, cell supernatants were assayed for kynurenine levels, an indicator of IDO1 activity.
H1-HeLa cells (ATCC #CRL-1958) were seeded in 384-well plates (Greiner #82051-282) at a volume […] (Corning #15-018-CM) supplemented with 10% FBS (Corning #35-011-CV) and 1% P/S/G (Corning #30-009-CL) at a density of 1,250 cells/well and incubated overnight at 37° C., 5% CO2/100% humidity. The following day, the test compounds were added in DMSO (0.5% final) at various concentrations, and IDO1 was inducibly expressed by the addition of 50 uL/well of 50 ng/mL of INFγ(Peprotech #300-02) in cell plating media. As a positive control, 50 uL of the cell plating media without IFNγ was added to several wells. Following a 48 hour incubation, the plates were spun down at 1,200 RPM for 5 min at 10° C. 65 μL/well of the supernatant was then transferred to new 384-well plates (Thermo #262160) that contained 10 uL/well of 30% TCA (Sigma #T0699), and the plates were sealed and incubated at 60° C. for 30 min. The plates were then centrifuged for 15 min at 2,000 RPM at 10° C. 40 μL/well of the supernatant was transferred to new 384-well plates (Thermo #262160) and was reacted with 40 μL/well of 2% (w/v) p-dimethylaminobenzaldehyde (Sigma #156417) in glacial acetic acid (Sigma #A6283). The reaction was incubated at room temperature for 10 min and absorbance at 480 nm was read using a PerkinElmer Envision plate reader.
Data in Table 1 were normalized based on positive (−IFNγ) and negative (+IFNγ) controls and EC50 values were calculated from the fit of the dose-response curves to a four-parameter equation. All EC50 values represent geometric mean values of a minimum of four determinations. These assays generally produced results within 2-fold of the reported mean.

T1 sequence (P14902 whole entry): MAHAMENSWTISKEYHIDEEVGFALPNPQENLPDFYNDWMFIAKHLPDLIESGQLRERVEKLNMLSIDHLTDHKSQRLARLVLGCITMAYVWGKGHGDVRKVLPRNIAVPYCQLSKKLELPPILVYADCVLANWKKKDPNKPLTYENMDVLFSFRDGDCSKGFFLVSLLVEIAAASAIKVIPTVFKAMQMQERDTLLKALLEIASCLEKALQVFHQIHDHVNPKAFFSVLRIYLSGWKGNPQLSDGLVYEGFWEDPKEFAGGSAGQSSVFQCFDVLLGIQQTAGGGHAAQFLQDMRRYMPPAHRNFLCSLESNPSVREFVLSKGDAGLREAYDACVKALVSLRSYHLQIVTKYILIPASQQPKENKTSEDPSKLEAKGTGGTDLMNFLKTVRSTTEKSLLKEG

EC50 [nM]	SMILES
888	Cc1ncc(-c2cccn3c(C4CCC4)ncc23)cc1C(=O)Nc1ccc(F)cc1 [Example 91, 5-(3-cyclobutylimidazo[1,5-a]pyridin-8-yl)-N-(4-fluorophenyl)-2-methylnicotinamide]
1330	NC(=O)c1ccnc(-c2ncc3c(-c4ccc(C(F)(F)F)c(C(=O)Nc5ccc(F)cc5)c4)cccn23)c1 [Example 6, 2-(8-(3-((4-fluorophenyl)carbamoyl)-4-(trifluoromethyl)phenyl)imidazo[1,5-a]pyridin-3-yl)isonicotinamide]
24.3	Fc1ccc2[nH]c(-c3cc(-c4cccn5c(-c6cccc(F)c6F)ncc45)ccc3C(F)(F)F)nc2c1 [Example 95, 2-(5-(3-(2,3-difluorophenyl)imidazo[1,5-a]pyridin-8-yl)-2-(trifluoromethyl)phenyl)-5-fluoro-1H-benzo[d]imidazole]
104	Cc1ncc(-c2cccn3c(-c4c(F)cccc4F)ncc23)cc1C(=O)Nc1ccc(F)cc1 [Example 24, 5-(3-(2,6-difluorophenyl)imidazo[1,5-a]pyridin-8-yl)-N-(4-fluorophenyl)-2-methylnicotinamide]
16.1	O=C(Nc1ccc(F)cc1)c1cc(-c2cccn3c(-c4ncco4)ncc23)ccc1C(F)(F)F [Example 46, N-(4-fluorophenyl)-5-(3-(oxazol-2-yl)imidazo[1,5-a]pyridin-8-yl)-2-(trifluoromethyl)benzamide]
2190	Cc1ccc(-c2cccn3c(-c4cnnn4C)ncc23)cc1C(=O)Nc1ccc(F)cc1 [Example 3, N-(4-fluorophenyl)-2-methyl-5-(3-(1-methyl-1H-1,2,3-triazol-5-yl)imidazo[1,5-a]pyridin-8-yl)benzamide]
19.3	Cc1ncc(-c2cccn3c(-c4ccccc4Cl)ncc23)cc1C(=O)Nc1ccc(F)cc1 [Example 80, 5-(3-(2-chlorophenyl)imidazo[1,5-a]pyridin-8-yl)-N-(4-fluorophenyl)-2-methylnicotinamide]
23.3	O=C(Nc1ccc(F)cc1)c1cc(-c2cccn3c(-c4cccc(F)c4)ncc23)ccc1C(F)(F)F [Example 39, N-(4-fluorophenyl)-5-(3-(3-fluorophenyl)imidazo[1,5-a]pyridin-8-yl)-2-(trifluoromethyl)benzamide]
69	Cc1ncc(-c2cccn3c(-c4ncccn4)ncc23)cc1C(=O)Nc1ccc(F)cc1 [Example 25, N-(4-fluorophenyl)-2-methyl-5-(3-(pyrimidin-2-yl)imidazo[1,5-a]pyridin-8-yl)nicotinamide]
895	Cc1cc(-c2cnc(C)c(C(=O)Nc3ccc(F)cc3)c2)c2cnc(-c3cccc(F)c3F)n2c1 [Example 78, 5-(3-(2,3-difluorophenyl)-6-methylimidazo[1,5-a]pyridin-8-yl)-N-(4-fluorophenyl)-2-methylnicotinamide]
15	O=C(Nc1ccc(F)cc1)c1cc(-c2cccn3c(-c4cccc(F)c4F)ncc23)ccc1OC(F)(F)F [Example 55]
79.5	Cc1ncc(-c2cccn3c(-c4cccc(F)c4F)ncc23)cc1C(=O)Nc1ccc(OC(F)F)cc1 [Example 67, N-(4-(difluoromethoxy)phenyl)-5-(3-(2,3-difluorophenyl)imidazo[1,5-a]pyridin-8-yl)-2-methylnicotinamide]
135	Cc1cccc(-c2ncc3c(-c4cnc(C)c(C(=O)Nc5ccc(F)cc5)c4)cccn23)c1 [Example 22, N-(4-fluorophenyl)-2-methyl-5-(3-(m-tolyl)imidazo[1,5-a]pyridin-8-yl)nicotinamide]
273	Cc1ncc(-c2cccn3c(-c4cccc(F)c4F)nc(Br)c23)cc1C(=O)Nc1ccc(F)cc1 [Example 92, 5-(1-bromo-3-(2,3-difluorophenyl)imidazo[1,5-a]pyridin-8-yl)-N-(4-fluorophenyl)-2-methylnicotinamide]
101	Cc1ncc(-c2cccn3c(-c4cccc(F)c4F)ncc23)cc1C(=O)Nc1ccc(F)c(F)c1 [Example 68]
49.5	Cc1ncc(-c2cccn3c(-c4cccc(Cl)c4F)ncc23)cc1C(=O)Nc1ccc(F)cc1 [Example 88]
239	Cc1ncc(-c2cccn3c(-c4ccccc4C(F)(F)F)ncc23)cc1C(=O)Nc1ccc(F)cc1 [Example 16, N-(4-fluorophenyl)-2-methyl-5-(3-(2-(trifluoromethyl)phenyl)imidazo[1,5-a]pyridin-8-yl)nicotinamide]

EC50 [nM]	SMILES
365	Cn1cnc(-c2ncc3c(-c4ccc(C(F)(F)F)c(C(=O)Nc5ccc(F)cc5)c4)cccn23)c1 [Example 13, N-(4-fluorophenyl)-5-(3-(1-methyl-1H-imidazol-4-yl)imidazo[1,5-a]pyridin-8-yl)-2-(trifluoromethyl)benzamide]
66.4	O=C(Nc1ccc(F)cc1)c1cc(-c2cccn3c(-c4ccncn4)ncc23)ccc1C(F)(F)F [Example 26, N-(4-fluorophenyl)-5-(3-(pyrimidin-4-yl)imidazo[1,5-a]pyridin-8-yl)-2-(trifluoromethyl)benzamide]
2940	Cc1ncc(-c2cccn3c(C4CC4)ncc23)cc1C(=O)Nc1ccc(F)cc1 [Example 90, 5-(3-cyclopropylimidazo[1,5-a]pyridin-8-yl)-N-(4-fluorophenyl)-2-methylnicotinamide]
1220	Cc1ccc(-c2cccn3c(-c4nnco4)ncc23)cc1C(=O)Nc1ccc(F)cc1 [Example 7]
85.7	Cc1cnc(-c2cccn3c(-c4cccc(F)c4F)ncc23)cc1C(=O)Nc1ccc(F)cc1 [Example 56, 2-(3-(2,3-difluorophenyl)imidazo[1,5-a]pyridin-8-yl)-N-(4-fluorophenyl)-5-methylisonicotinamide]
1410	Cc1ccc(-c2cccn3c(-c4ccc(F)cc4C)nnc23)cc1C(=O)Nc1ccc(F)cc1 [Example 5, 5-(3-(4-fluoro-2-methylphenyl)-[1,2,4]triazolo[4,3-a]pyridin-8-yl)-N-(4-fluorophenyl)-2-methylbenzamide]
57.6	Cc1ncc(-c2cccn3c(-c4cccc(F)c4F)ncc23)cc1C(=O)Nc1ccncc1 [Example 69, 5-(3-(2,3-difluorophenyl)imidazo[1,5-a]pyridin-8-yl)-2-methyl-N-(pyridin-4-yl)nicotinamide]
23.9	[2H]c1c([2H])c(NC(=O)c2cc(-c3cccn4c(-c5cccc(F)c5F)ncc34)cnc2C)c([2H])c([2H])c1F [Example 73, 5-(3-(2,3-difluorophenyl)imidazo[1,5-a]pyridin-8-yl)-N-(4-fluorophenyl-2,3,5,6-d4)-2-methylnicotinamide]
19.8	O=C(Nc1ccc(F)cc1)c1cc(-c2cccn3c(-c4cccc(F)c4F)ncc23)ccc1C(F)F [Example 41, 2-(difluoromethyl)-5-(3-(2,3-difluorophenyl)imidazo[1,5-a]pyridin-8-yl)-N-(4-fluorophenyl)benzamide]
76.8	Cc1ccc(-c2cccn3c(-c4cccc(F)c4F)ncc23)nc1C(=O)Nc1ccc(F)cc1 [Example 57]
2630	Cc1ccc(-c2nccn3c(-c4ccccn4)ncc23)cc1C(=O)Nc1ccc(F)cc1 [Example 54, N-(4-fluorophenyl)-2-methyl-5-(3-(pyridin-2-yl)imidazo[1,5-a]pyrazin-8-yl)benzamide]
322	Cc1ccc(-c2cccn3c(-c4cn(C)cn4)ncc23)cc1C(=O)Nc1ccc(F)cc1 [Example 14, N-(4-fluorophenyl)-2-methyl-5-(3-(1-methyl-1H-imidazol-4-yl)imidazo[1,5-a]pyridin-8-yl)benzamide]
124	O=C(Nc1ccc(F)cc1)c1cc(-c2cccn3c(-c4cccc(F)c4F)ncc23)cnc1N1CCC1 [Example 94, 2-(azetidin-1-yl)-5-(3-(2,3-difluorophenyl)imidazo[1,5-a]pyridin-8-yl)-N-(4-fluorophenyl)nicotinamide]
16.4	O=C(Nc1ccc(F)cc1)c1cc(-c2cccn3c(-c4ncccn4)ncc23)ccc1C(F)(F)F [Example 45]
235	Cc1ncc(-c2cccn3c(-c4cccc(Cl)c4)ncc23)cc1C(=O)Nc1ccc(F)cc1 [Example 81, 5-(3-(3-chlorophenyl)imidazo[1,5-a]pyridin-8-yl)-N-(4-fluorophenyl)-2-methylnicotinamide]
34.9	O=C(Nc1ccc(F)cc1)c1cc(-c2cccn3c(-c4cc[nH]n4)ncc23)ccc1C(F)(F)F [Example 32, 5-(3-(1H-pyrazol-3-yl)imidazo[1,5-a]pyridin-8-yl)-N-(4-fluorophenyl)-2-(trifluoromethyl)benzamide]
274	N#Cc1cccnc1-c1ncc2c(-c3ccc(C(F)(F)F)c(C(=O)Nc4ccc(F)cc4)c3)cccn12 [Example 15, 5-(3-(3-cyanopyridin-2-yl)imidazo[1,5-a]pyridin-8-yl)-N-(4-fluorophenyl)-2-(trifluoromethyl)benzamide]
